Measurements: US20050112573A1, “Method of detecting toxic substance” (priority 2001, published 2005)

Tested on: yeast genes (level of expressed mRNA)
Assay: DNA chip analysis of expressed mRNA of yeast genes after 2 h culture with a toxic chemical substance
Type: cell-based, Saccharomyces cerevisiae S288C
Method: Yeast (Saccharomyces cerevtisiae S288C (α SUC2mal mel gap2 CUP1)) were cultured at 25° C. on YPD medium (yeast extract 1%, polypepton 2%, glucose 2%). One of toxic chemical substances was added to the cell at logarithmic growth phase, and the cell was further cultured for two hours. Cell was cultured without any chemical substance in the same condition, and was used as control. Concentrations of the chemical substances were defined to inhibit the growth of the yeast but not lead to death.
After the completion of cultivation, the culture was centrifuged to collect the cells. To the cells, sodium acetate buffer (50 mM sodium acetate, 10 mM EDTA, 1% SDS) was added, and the mixture was shaken at 65° C. for five minutes, followed by returning to room temperature, and obtaining the supernatant, which procedure was repeated two times. To the supernatant, ½ amount of a solution of phenol/chloroform was added, and the mixture was centrifuged to give a supernatant, which was added with an equal amount of chloroform, and the mixture was centrifuged to give a supernatant. To the supernatant, an equal amount of isopropanol containing 0.3 M sodium acetate was added, and the mixture was allowed to stand at room temperature for 30 minutes, after which the mixture was centrifuged to give a sediment of the whole RNAs. Seventy % ethanol was added to the sediment, and the mixture was again centrifuged to give a sediment, which was then dried and dissolved in water. mRNA was isolated from the whole RNAs as followings. In view of the fact that a poly A chain is attached to the 3′ terminus of mRNA, a polynucleotide having a poly T structure which was immobilized on the surface of latex beads was used to trap the mRNA, and then the mRNA was washed and eluted with spine column (Oligotex-dT30<Super>mRNA Purification Kit, Takara). Reverse transcription of the mRNA was conducted with a reverse transcriptase (Super Script II Reverse Transcriptase; catalogue No. 18064-014, GibcoBRL) using fluorescence-labeled nucleotides to give cDNAs that were introduced with Cy3-dUTP or Cy5-dUTP during the reverse transcription.
The labeled cDNAs were dissolved in TE buffer (10 mM Tris-HCl/1 mM EDTA, pH8.0), and the solution was dropped on the DNA chip containing the whole genes of yeast (DNA Chip Research Inc. Japan) so that the cDNAs were hybridized on the DNA chip at 65° C. for over 12 hours. The fluoresces intensity of the DNA chip was read with a scanner, and the ratio relative to the fluorescence intensity resulting from the absence of chemical substance was estimated as the following, which is shown in Tables 1 to 9: [formula]
In the Tables, “Intensity” indicated in the rightmost column is a value of the level of expressed mRNA of each gene in control cells as divided by the average level of the expressions of the whole genes.

Substance: γ-hexachlorocyclohexane [(7)]
- The level of expressed mRNA in the presence of chemical substance/ (yeast gene YAL053W, ratio to control without chemical): 0.7
- The level of expressed mRNA in the presence of chemical substance/The level of expressed mRNA in the absence of chemical substance (yeast gene YAR010C): 1.9
- The level of expressed mRNA in the presence of chemical substance/The level of expressed mRNA in the absence of chemical substance (yeast gene YBL005W-A): 1.4
- The level of expressed mRNA in the presence of chemical substance/The level of expressed mRNA in the absence of chemical substance (yeast gene YBL041W): 1.6
- The level of expressed mRNA in the presence of chemical substance/The level of expressed mRNA in the absence of chemical substance (yeast gene YBL043W): 1.5
- The level of expressed mRNA in the presence of chemical substance/ (yeast gene YBL048W, ratio to control without chemical substance, 2 h culture): 1.9
- The level of expressed mRNA in the presence of chemical substance/The level of expressed mRNA in the absence of chemical substance (yeast gene YBL078C): 3.1
- The level of expressed mRNA in the presence of chemical substance/ (yeast gene YBL107C, ratio to control without chemical substance, 2 h culture): 2.1
- The level of expressed mRNA in the presence of chemical substance/in the absence of chemical substance (yeast gene YBR036C): 1.3
- The level of expressed mRNA in the presence of chemical substance/The level of expressed mRNA in the absence of chemical substance (yeast gene YBR214W): 1.1
- The level of expressed mRNA in the presence of chemical substance/in the absence of chemical substance (yeast gene YBR298C): 1.7
- The level of expressed mRNA in the presence of chemical substance/The level of expressed mRNA in the absence of chemical substance (yeast gene YCL020W): 1.5
- The level of expressed mRNA in the presence of chemical substance/The level of expressed mRNA in the absence of chemical substance (yeast gene YCL027W): 1.0
- The level of expressed mRNA in the presence of chemical substance/The level of expressed mRNA in the absence of chemical substance (yeast gene YCR004C): 1.4
- The level of expressed mRNA in the presence of chemical substance/The level of expressed mRNA in the absence of chemical substance (yeast gene YCR071C): 1.4
- The level of expressed mRNA in the presence of chemical substance/The level of expressed mRNA in the absence of chemical substance (yeast gene YCR088W): 1.2
- The level of expressed mRNA in the presence of chemical substance/The level of expressed mRNA in the absence of chemical substance (yeast gene YDL008W): 2.0
- The level of expressed mRNA in the presence of chemical substance/ (yeast gene YDL072C, ratio to control without chemical): 1.8
- The level of expressed mRNA in the presence of chemical substance/in the absence of chemical substance (yeast gene YDL078C): 1.7
- The level of expressed mRNA in the presence of chemical substance/ (yeast gene YDL204W, ratio to control without chemical): 3.2
- The level of expressed mRNA in the presence of chemical substance/in the absence of chemical substance (yeast gene YDL215C): 1.9
- The level of expressed mRNA in the presence of chemical substance/ (yeast gene YDL222C, ratio to control without chemical): 1.0
- The level of expressed mRNA in the presence of chemical substance/The level of expressed mRNA in the absence of chemical substance (yeast gene YDL238C): 1.4
- The level of expressed mRNA in the presence of chemical substance/The level of expressed mRNA in the absence of chemical substance (yeast gene YDR055W): 1.5
- The level of expressed mRNA in the presence of chemical substance/The level of expressed mRNA in the absence of chemical substance (yeast gene YDR084C): 0.9
- The level of expressed mRNA in the presence of chemical substance/The level of expressed mRNA in the absence of chemical substance (yeast gene YDR085C): 4.1
- The level of expressed mRNA in the presence of chemical substance/The level of expressed mRNA in the absence of chemical substance (yeast gene YDR104C): 1.0
- The level of expressed mRNA in the presence of chemical substance/The level of expressed mRNA in the absence of chemical substance (yeast gene YDR115W): 1.6
- The level of expressed mRNA in the presence of chemical substance/The level of expressed mRNA in the absence of chemical substance (yeast gene YDR259C): 2.8
- The level of expressed mRNA in the presence of chemical substance/in the absence of chemical substance (yeast gene YDR297W): 0.6
- The level of expressed mRNA in the presence of chemical substance/The level of expressed mRNA in the absence of chemical substance (yeast gene YDR315C): 1.4
- The level of expressed mRNA in the presence of chemical substance/ (yeast gene YDR330W, ratio to control without chemical substance, 2 h culture): 1.3
- The level of expressed mRNA in the presence of chemical substance/The level of expressed mRNA in the absence of chemical substance (yeast gene YDR358W): 2.8
- The level of expressed mRNA in the presence of chemical substance/in the absence of chemical substance (yeast gene YDR387C): 1.3
- The level of expressed mRNA in the presence of chemical substance/The level of expressed mRNA in the absence of chemical substance (yeast gene YDR388W): 1.1
- The level of expressed mRNA in the presence of chemical substance/ (yeast gene YDR411C, ratio to control without chemical substance, 2 h culture): 2.0
- The level of expressed mRNA in the presence of chemical substance/The level of expressed mRNA in the absence of chemical substance (yeast gene YDR432W): 0.5
- The level of expressed mRNA in the presence of chemical substance/The level of expressed mRNA in the absence of chemical substance (yeast gene YDR481C): 0.7
- The level of expressed mRNA in the presence of chemical substance/The level of expressed mRNA in the absence of chemical substance (yeast gene YDR510W): 1.6
- The level of expressed mRNA in the presence of chemical substance/ (yeast gene YDR511W, ratio to control without chemical substance, 2 h culture): 1.5
- The level of expressed mRNA in the presence of chemical substance/ (yeast gene YDR545W, ratio to control without chemical substance, 2 h culture): 1.2
- The level of expressed mRNA in the presence of chemical substance/ (yeast gene YEL001C, ratio to control without chemical): 1.1
- The level of expressed mRNA in the presence of chemical substance/The level of expressed mRNA in the absence of chemical substance (yeast gene YEL042W): 0.5
- The level of expressed mRNA in the presence of chemical substance/The level of expressed mRNA in the absence of chemical substance (yeast gene YEL066W): 1.8
- The level of expressed mRNA in the presence of chemical substance/ (yeast gene YER004W, ratio to control without chemical substance, 2 h culture): 1.4
- The level of expressed mRNA in the presence of chemical substance/ (yeast gene YER035W, ratio to control without chemical substance, 2 h culture): 1.9
- The level of expressed mRNA in the presence of chemical substance/The level of expressed mRNA in the absence of chemical substance (yeast gene YER039C): 1.3
- The level of expressed mRNA in the presence of chemical substance/ (yeast gene YER079W, ratio to control without chemical substance, 2 h culture): 1.9
- The level of expressed mRNA in the presence of chemical substance/ (yeast gene YER106W, ratio to control without chemical): 1.0
- The level of expressed mRNA in the presence of chemical substance/The level of expressed mRNA in the absence of chemical substance (yeast gene YER107C): 1.0
- The level of expressed mRNA in the presence of chemical substance/The level of expressed mRNA in the absence of chemical substance (yeast gene YER130C): 1.5
- The level of expressed mRNA in the presence of chemical substance/ (yeast gene YER158C, ratio to control without chemical substance, 2 h culture): 1.2
- The level of expressed mRNA in the presence of chemical substance/ (yeast gene YER163C, ratio to control without chemical substance, 2 h culture): 1.5
- The level of expressed mRNA in the presence of chemical substance/ (yeast gene YER175C, ratio to control without chemical substance, 2 h culture): 2.3
- The level of expressed mRNA in the presence of chemical substance/ (yeast gene YFL006W, ratio to control without chemical substance, 2 h culture): 1.0
